Starred links: 1 amine or outer side, 2 acyl side, 3 side chain; linkers in the order of their positions; H or OH if unused. Positions of bridges follow the written chain, without caps; N, C: chain ends. Non-standard residues stand in square brackets, D forms with d. Residues, ends and D or L forms follow the SMILES beside them. Trp(2-yl) = O=C([C@H](Cc1c([*:3])[nH]c2ccccc12)N[*:1])[*:2]; Leu(4R-OH,5-OH) = C[C@](O)(CO)C[C@H](N)C(=O)O; cisHyp = O=C(O)[C@@H]1C[C@H](O)CN1
Experiments:
[1] = tested on: platelets; assay: Nucleation activity in lysates from Quin-2-loaded, thrombin-activated platelets; type: cell-based, human
Protocol: Human blood from healthy volunteers, drawn into 0.1 vol of Aster-Jandl anticoagulant, was centrifuged at 110 g for 10 min. The platelet-rich plasma was gel-filtered through a Sepharose 2B column equilibrated and eluted with a solution containing 145 mM NaCl, 10 mM Hepes, 10 mM glucose, 0.5 mM Na2 HPO4, 5 mM KCl, 2 mM MgCl2, and 0.3% BSA, pH 7.4 (platelet buffer). 2 U/ml apyrase was added to the platelet suspension and the cells were left standing for 60 min. at 37° C. as previously reported (Hartwig, J., and M. DeSisto, 1991 J. Cell Biol. 112:407-425; Hartwig, J., et al. 1989 J. Cell Biol. 109:1571-1579). To maintain cytosolic calcium at or below its resting level during cell activation, cells were loaded with 30 uM Quin-2AM during minutes 30-60 of the rest period. The effect of Quin-2 was reversed by the addition of 1 mM CaCl2 to the bathing media before centrifugation of the Quin 2-loaded cells onto the coverslips or after the cells had been attached and formed filopodia on the coverslip. Glass-adherent, Quin-2 loaded cells were also treated with 1 mM CaCL2 and 20 nM of the ionophore A23187 for 15 seconds (s) and then detergent permeabilized. […]
The effect of cell lysates on the rate and extent of pyrene-labeled rabbit skeletal muscle actin was determined as described previously (Hartwig, J., and P. Janmey, 1989 Biochim. Biophys. Acta. 1010:64-71). […] The relative contribution of nuclei with barbed or pointed ends in the cell lysates was determined by adding 2 uM cytochalasin B to the pyrene nucleation assay system. […] To determine if the measured stimulation of actin assembly and its decay with time was due to the growth of pyrene-actin addition onto cellular filaments subject to depolymerization in the diluted lysate, 0.1 uM phalloidin or phallacidin was added to the cell lysates during their preparation to stabilize the filaments. […] However, we also determined that the soluble phase from cells permeabilized with detergent in the presence of EGTA contained calcium dependent nucleation activity. […]

[2] = tested on: platelets; assay: Morphology and cytoskeleton of Quin-2-loaded platelets, resting or activated (light and electron microscopy); type: cell-based, human
Protocol: Human blood from healthy volunteers, drawn into 0.1 vol of Aster-Jandl anticoagulant, was centrifuged at 110 g for 10 min. The platelet-rich plasma was gel-filtered through a Sepharose 2B column equilibrated and eluted with a solution containing 145 mM NaCl, 10 mM Hepes, 10 mM glucose, 0.5 mM Na2 HPO4, 5 mM KCl, 2 mM MgCl2, and 0.3% BSA, pH 7.4 (platelet buffer). 2 U/ml apyrase was added to the platelet suspension and the cells were left standing for 60 min. at 37° C. as previously reported (Hartwig, J., and M. DeSisto, 1991 J. Cell Biol. 112:407-425; Hartwig, J., et al. 1989 J. Cell Biol. 109:1571-1579). To maintain cytosolic calcium at or below its resting level during cell activation, cells were loaded with 30 uM Quin-2AM during minutes 30-60 of the rest period. The effect of Quin-2 was reversed by the addition of 1 mM CaCl2 to the bathing media before centrifugation of the Quin 2-loaded cells onto the coverslips or after the cells had been attached and formed filopodia on the coverslip. Glass-adherent, Quin-2 loaded cells were also treated with 1 mM CaCL2 and 20 nM of the ionophore A23187 for 15 seconds (s) and then detergent permeabilized. In some cases, platelets were used directly from platelet-rich plasma by diluting it 1:20 with platelet buffer containing, in addition, 0.1 mM EGTA and 2 U/ml apyrase. The diluted cells were incubated for 30 min. at 37° C. to insure a resting state.
Platelet suspensions were activated by the addition of 1 U/ml of thrombin (hereafter called thrombin-activated) for 15-30 seconds in studies of nucleation activity. Activation was terminated by permeabilizing the cells as detailed below. Glass activation was used for the morphological studies. Cells were glass-activated by centrifugation onto polylysine-coated glass coverslips at 250 g for 5 min. Coverslips were placed in the bottom of multiwell plates (24 or 96 wells), covered with 0.25 ml of platelet suspension, and centrifuged at 37° C. in a Sorvall HB-6000 centrifuge using multiwell carriers.
Light microscopy and electron microscopy of platelets and cytoskeletons were performed according to standard methods, see e.g., Hartwig, J., 1992, J. Cell Biol. 118(6):1421-1442. The localization of gelsolin in platelets was performed by gold labeling of cytoskeletons from resting and activated cells with antibodies to gelsolin. The affinity-purified goat anti-rabbit macrophage gelsolin IgG was described earlier (Hartwig, J., and M. DeSisto, 1991 J. Cell Biol. 112:407-425; Hartwig, J., and P. Shevlin, 1986 J. Cell Biol. 103:1007-1020).

[3] = Quin-2-loaded platelets, glass activated

C[C@@H]1NC(=O)[C@H](C[C@@](C)(O)CO)NC(=O)[C@@H]2Cc3c([nH]c4ccccc34)SC[C@H](NC(=O)[C@@H]([C@H](C)O)NC1=O)C(=O)N1C[C@@H](O)C[C@H]1C(=O)N[C@@H](C)C(=O)N2 [phalloidin] (cyclo(A[dT]C[cisHyp]A[Trp(2-yl)][Leu(4R-OH,5-OH)]); thioether 3-6)
Effect on nucleation activity in lysates from Quin-2-loaded cells ([1]; 0.1 uM phalloidin in lysates, Quin-2-loaded, thrombin-activated): no effect

COc1cc(N(CC(=O)O)CC(=O)O)c2nc(COc3cc(C)ccc3N(CC(=O)O)CC(=O)O)ccc2c1 [Quin-2]
Rearrangements of gelsolin on activation (immunoelectron microscopy) ([2]; Quin-2-loaded and activated cells): did not occur | Filopodia length [2, 3]: 2-5 um | Morphology after glass activation [2, 3]: extend filopodia but not lamellipodia | activity at 30 µM ([1]; Homo sapiens, Platelet, Quin-2-loaded, thrombin-activated, assayed immediately, read-out: Nucleation activity relative to lysates from untreated and activated cells): 28% | Stability of nucleation activity in detergent lysates ([1]; Quin-2-loaded cells, lysates incubated as long as 10 min before assay): no loss in its activity

COc1cc(N(CC(=O)OCOC(C)=O)CC(=O)OCOC(C)=O)c2nc(COc3cc(C)ccc3N(CC(=O)OCOC(C)=O)CC(=O)OCOC(C)=O)ccc2c1 [Quin-2AM, acetoxymethyl ester of quin-2]
Effect on structure of resting cells and their cytoskeletons ([2]; 30 uM Quin-2AM loading, light microscope): no effect | Swelling, actin filament severing and extension of lamellipodial networks associated with platelet activation ([2]; quin-2AM prior to activation with thrombin): prevented

CNc1ccc2oc(C[C@H]3O[C@@]4(CC[C@H]3C)O[C@H]([C@H](C)C(=O)c3ccc[nH]3)[C@H](C)C[C@H]4C)nc2c1C(=O)O [A23187]
Cytoskeletons of Quin-2-loaded, glass-activated cells after external calcium plus ionophore ([2]; added external calcium (1 mM CaCl2) with 20 nM A23187, within seconds): completely disrupted

Source: patent publication US5876676A, “Preservation of blood platelets” (priority 1996, dated 1999)
